The source of these data is US10633375B2, “Oxopicolinamide derivative, preparation method therefor and pharmaceutical use thereof” (Jiangsu Hengrui Medicine Co., Ltd., priority 2016, dated 2020).

Bounds are passed on as bounds.

Data set [1] deals with human blood. The data set is described as follows: In vitro anticoagulant effect on human blood (APTT, CT2). The conditions noted are these: Table 2; concentration corresponding to 2 times the APTT of the blank control, human plasma. As to the method: Test Example 2: Determination of In Vitro Anticoagulant Effect of the Compounds of the Present Invention on Human Blood
1. Experimental Materials
Plasma: Human blood was collected in blood collection tubes containing no anticoagulant, and then 3.8% sodium citrate (volume ratio 1:9) was added. The tubes were centrifuged at 2500 rpm for 10 minutes at room temperature, and then the plasma was collected and stored at −80° C.;
Reagents: APTT reagent (Activated partial thromboplastin time assay kit, SIEMENS, Art. No. B4218-1), calcium chloride solution;
Instrument: Coagulation instrument (SYSMEX, CA-500).
The divided plasma was melted at room temperature and mixed well. 10000 μM the test compound dissolved in 100% DMSO was diluted to 3000, 300, 200, 150, 75, 30, 10, 3, 0.3 μM with 100% DMSO, and the blank was 100% DMSO. The reagent, plasma, and compound were placed in corresponding positions in the coagulation instrument, and APTT detection of the compound was carried out.
Curve fitting was carried out by graphpad and CT2 was calculated, i.e., the concentration of the compound corresponding to 2 times the APTT of the blank control.

Data set [2] concerns the target Coagulation Factor XIa protease (Homo sapiens (Human), UniProt P03951). The data set is described as follows: Inhibition of Factor XIa detected by absorption photometry. Format: biochemical. As to conditions: absorbance at 405 nm, 10 minutes at 37° C. The essentials: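 Compounds were serially diluted in 100% DMSO (200-0.002 μM dilution series) before addition to the wells. FXIa enzyme solution at 2.5 μg/ml and substrate solution at 2 mM were then added, both stock concentrations. After 10 min at 37° C., absorbance was read at 405 nm.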

Data set [3] can be described thus: Pharmacokinetics assay in rats after intragastrical administration. Format: in vivo, Sprague-Dawley (SD) rats. The conditions noted are these: both sexes, Sprague-Dawley, rat, plasma, po, SD rats, intragastric, 2 mg/kg; for Vd/F: read-out: Apparent Distribution Volume Vz/F; for AUC: read-out: Area Under Curve AUC; for CL/F: read-out: Clearance CLz/F; for half-life: read-out: Half-Life T½ (converted); for MRT: read-out: Mean Residence Time MRT; for Cmax: read-out: Plasma Concentration Cmax. The source says:
Test Example 3. Pharmacokinetics Assay of the Compounds of the Present Invention
Rats were used as test animals. […] The pharmacokinetic behavior of the compounds of the present invention was studied and evaluated in rats.
56 healthy adult Sprague-Dawley (SD) rats, half male and half female, were purchased from SINO-BRITSH SIPPR/BK LAB. ANIMAL LTD., CO, with License No.: SCXK (Shanghai) 2008-0016.
2.3 Preparation of the Test Compounds
A certain amount of the test compound was weighed, and added with 5% by volume of DMSO, 5% by volume of Tween 80 and 90% normal saline to prepare a 0.2 mg/mL colorless, clear and transparent solution.
After an overnight fast, SD rats were intragastrically administered at a dose of 2.0 mg/kg and an administration volume of 10.0 mL/kg.
Blood (0.2 mL) was taken from the orbital sinus before administration and at 0.5, 1.0, 2.0, 4.0, 6.0, 8.0, 11.0 and 24.0 hours after administration. The samples were stored in heparin anticoagulation tubes, and centrifuged for 10 minutes at 3500 rpm at 4° C. to separate the blood plasma. The plasma samples were stored at −20° C. The rats were fed 2 hours after administration.
The content of the test compound in the plasma of rats after intragastric administration of different concentrations of the drug was determined: 25 μL of rat plasma at each time after administration was taken and added with 30 μL (100 ng/mL) of the internal standard solution of camptothecin and 200 μL of acetonitrile, shaken vertically for 5 minutes, and centrifuged for 10 minutes (4000 rpm). 3.0 μL of the supernatant was taken from the plasma samples for LC/MS/MS analysis.
4. Results of Pharmacokinetic Parameters
Pharmacokinetic parameters of the compounds of the present invention in rats are shown below.

In general, IC50 refers to the concentration needed to halve the response being measured. For orientation: AUC means the area under the concentration-time curve, a measure of exposure. A word on the half-life: it is the time needed for the level to fall by half in the phase considered. The MRT is the average time that molecules of a dose stay in the body.

Chain of Coagulation Factor XIa protease (P03951 388-625): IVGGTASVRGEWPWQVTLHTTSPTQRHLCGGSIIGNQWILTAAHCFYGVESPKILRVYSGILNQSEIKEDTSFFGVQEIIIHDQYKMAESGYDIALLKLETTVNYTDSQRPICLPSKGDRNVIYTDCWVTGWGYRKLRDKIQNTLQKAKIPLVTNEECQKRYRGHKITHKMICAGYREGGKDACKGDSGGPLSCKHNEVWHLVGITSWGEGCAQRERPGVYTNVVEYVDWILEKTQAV
Chain of Coagulation Factor XIa protease (P03951 19-387 partner): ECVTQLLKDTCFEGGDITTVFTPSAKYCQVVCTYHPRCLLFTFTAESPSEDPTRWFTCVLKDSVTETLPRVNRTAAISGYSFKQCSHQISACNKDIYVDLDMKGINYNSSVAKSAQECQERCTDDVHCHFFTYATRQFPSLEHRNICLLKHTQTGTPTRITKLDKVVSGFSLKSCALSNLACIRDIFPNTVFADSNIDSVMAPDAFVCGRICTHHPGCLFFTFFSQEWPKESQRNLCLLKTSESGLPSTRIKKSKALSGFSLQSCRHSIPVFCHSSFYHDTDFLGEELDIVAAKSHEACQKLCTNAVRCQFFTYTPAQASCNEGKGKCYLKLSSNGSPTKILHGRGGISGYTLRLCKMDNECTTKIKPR

As to `COc1cn([C@@H](Cc2ccccn2)C(=O)Nc2ccc(C(=O)O)cc2)c(=O)cc1-c1cc(Cl)ccc1C(C)=O` [Example 80, (S)-4-(2-(4-(2-acetyl-5-chlorophenyl)-5-methoxy-2-oxopyridin-1(2H)-yl)-3-(pyridin-2-yl)propanamido)benzoic acid], the “CT2, concentration doubling APTT” value in data set [1] is 7.9 µM. For the same molecule, the IC50 in data set [2] was found to be 40 nM. For the same molecule, in data set [3], the Vd/F came to 15.8 ± 2.29 L/kg, the AUC worked out at 158 ± 45 ng·h/mL, the CL/F worked out at 222 ± 55.7 mL/min/kg and the half-life is 0.85 ± 0.14 h. Further, in data set [3], the MRT stood at 1.85 ± 0.76 h and the Cmax was determined as 126 ± 50 ng/mL.
With `COc1cn([C@@H](CCOC(C)(C)C)C(=O)Nc2ccc(C(=O)O)cc2)c(=O)cc1-c1cc(Cl)ccc1C(C)=O` [Example 111, (S)-4-(2-(4-(2-acetyl-5-chlorophenyl)-5-methoxy-2-oxopyridin-1(2H)-yl)-4-(tert-butoxy)butanamido)benzoic acid], in data set [1], the “CT2, concentration doubling APTT” value turned out to be 3.2 µM. For the same molecule, half-maximal inhibition in data set [2] (IC50) required 18 nM. In data set [3], the Vd/F worked out at 36.7 ± 13.7 L/kg, the AUC was determined as 378 ± 98 ng·h/mL, the CL/F turned out to be 94.1 ± 30.8 mL/min/kg and the half-life was 4.94 ± 2.33 h. In data set [3], the MRT was determined as 4.41 ± 1.99 h and the Cmax was determined as 252 ± 56 ng/mL.
Consider `CNC(=O)c1ccc(NC(=O)[C@H](Cc2ccccc2)n2cc(OC)c(-c3cc(Cl)ccc3C(C)=O)cc2=O)cc1` [Example 13, (S)-4-(2-(4-(2-acetyl-5-chlorophenyl)-5-methoxy-2-oxopyridin-1(2H)-yl)-3-phenylpropanamido)-N-methylbenzamide], for which the “CT2, concentration doubling APTT” value in data set [1] turned out to be 6.0 µM. Besides, 46 nM corresponded to half-maximal inhibition in data set [2] (IC50). In addition, in data set [3], the Vd/F came out at 26.9 ± 14 L/kg, the AUC was 241 ± 168 ng·h/mL, the CL/F was determined as 217 ± 151 mL/min/kg and the half-life is 1.67 ± 0.48 h. Besides, in data set [3], the MRT is 2.36 ± 1.05 h and the Cmax turned out to be 119 ± 78 ng/mL.
Regarding `COc1cn([C@H](CC2CCC2)C(=O)Nc2ccc(C(=O)O)cc2)c(=O)cc1-c1c(C(C)=O)ccc(Cl)c1F` [Example 160, (R)-4-(2-(4-(6-acetyl-3-chloro-2-fluorophenyl)-5-methoxy-2-oxopyridin-1(2H)-yl)-3-cyclobutylpropanamido)benzoic acid], the “CT2, concentration doubling APTT” value in data set [1] came to 3.8 µM. Further, in data set [2], the IC50 was found to be 68 nM. In data set [3], the Vd/F is 34.6 ± 4.13 L/kg, the AUC stood at 365 ± 52 ng·h/mL, the CL/F turned out to be 92.5 ± 12.3 mL/min/kg and the half-life was 4.34 ± 0.35 h. Also, in data set [3], the MRT is 8.3 ± 1.33 h and the Cmax was found to be 53.9 ± 20.3 ng/mL.
Consider `COc1cn([C@@H](Cc2ccccn2)C(=O)Nc2ccc(C(N)=O)cc2)c(=O)cc1-c1cc(Cl)ccc1C(C)=O` [Example 85, (S)-4-(2-(4-(2-acetyl-5-chlorophenyl)-5-methoxy-2-oxopyridin-1(2H)-yl)-3-(pyridin-2-yl)propanamido)benzamide], for which the “CT2, concentration doubling APTT” value in data set [1] was determined as 6.5 µM. Moreover, in data set [2], inhibition was half-maximal at 92 nM (IC50).
The matching figures for `COc1cn([C@H](Cc2cnn(C)c2)C(=O)Nc2ccc(C(=O)O)cc2)c(=O)cc1-c1cc(Cl)ccc1C(C)=O` [Example 104, (R)-4-(2-(4-(2-acetyl-5-chlorophenyl)-5-methoxy-2-oxopyridin-1 (2H)-yl)-3-(1-methyl-1H-pyrazol-4-yl)propanamido)benzoic acid]: over 10000 µM and 8150 nM.
The corresponding values for `COc1cn([C@@H](Cc2cccc(C#N)c2)C(=O)Nc2ccc(C(=O)O)cc2)c(=O)cc1-c1cc(Cl)ccc1C(C)=O` [Example 89, (S)-4-(2-(4-(2-acetyl-5-chlorophenyl)-5-methoxy-2-oxopyridin-1(2H)-yl)-3-(3-cyanophenyl)propanamido)benzoic acid] are 5.7 µM and 42 nM.
Consider `CCC(=O)c1ccc(Cl)cc1-c1cc(=O)n([C@@H](Cc2ccccc2)C(=O)Nc2ccc(C(=O)O)cc2)cc1OC` [Example 9, (S)-4-(2-(4-(5-chloro-2-propionylphenyl)-5-methoxy-2-oxopyridin-1(2H)-yl)-3-phenylpropanamido)benzoic acid], for which the “CT2, concentration doubling APTT” value in data set [1] worked out at 2.4 µM. The same molecule yielded a concentration for half-maximal inhibition (IC50) in data set [2] of 14 nM. For the same molecule, in data set [3], the Vd/F came to 31.5 ± 16.1 L/kg, the AUC was 701 ± 615 ng·h/mL, the CL/F worked out at 69.8 ± 35.2 mL/min/kg and the half-life was 5.55 ± 1.79 h. In data set [3], the MRT was found to be 6.78 ± 2.36 h and the Cmax amounted to 128 ± 50 ng/mL.
Consider `COc1cn(C(Cc2ccn(C3CC3)n2)C(=O)Nc2ccc3nccnc3c2)c(=O)cc1-c1cc(Cl)ccc1C(C)=O` (centres unmarked) [Example 96, 2-(4-(2-acetyl-5-chlorophenyl)-5-methoxy-2-oxopyridin-1(2H)-yl)-3-(1-cyclopropyl-1H-pyrazol-3-yl)-N-(quinoxalin-6-yl)propanamide], for which the “CT2, concentration doubling APTT” value in data set [1] came out at 6.7 µM. This molecule also came in with an IC50 in data set [2] of 32 nM.
Regarding `COc1cn([C@@H](Cc2ccccc2)C(=O)Nc2ccc(C(=O)O)cc2)c(=O)cc1-c1c(C(C)=O)ccc(Cl)c1F` [Example 31, (S)-4-(2-(4-(6-acetyl-3-chloro-2-fluorophenyl)-5-methoxy-2-oxopyridin-1(2H)-yl)-3-phenylpropanamido)benzoic acid], the “CT2, concentration doubling APTT” value in data set [1] was 8.5 µM. Besides, in data set [3], the Vd/F was determined as 21.6 ± 6.31 L/kg, the AUC stood at 414 ± 77 ng·h/mL, the CL/F is 82.5 ± 14.6 mL/min/kg and the half-life was 3.2 ± 1.41 h. In data set [3], the MRT worked out at 3.24 ± 0.93 h and the Cmax is 234 ± 66 ng/mL.
Turning to `COc1cn(C(Cc2ccn(C3CC3)n2)C(=O)Nc2ccc3ncncc3c2)c(=O)cc1-c1cc(Cl)ccc1C(C)=O` (centres unmarked) [Example 98, 2-(4-(2-acetyl-5-chlorophenyl)-5-methoxy-2-oxopyridin-1(2H)-yl)-3-(1-cyclopropyl-1H-pyrazol-3-yl)-N-(quinazolin-6-yl)propanamide], in data set [1], the “CT2, concentration doubling APTT” value turned out to be 7.6 µM. The IC50 in data set [2] was 40 nM.
Turning to `COc1cn([C@H](Cc2ccccn2)C(=O)Nc2ccc(C(=O)O)cc2)c(=O)cc1-c1cc(Cl)ccc1C(C)=O` [Example 81, (R)-4-(2-(4-(2-acetyl-5-chlorophenyl)-5-methoxy-2-oxopyridin-1(2H)-yl)-3-(pyridin-2-yl)propanamido)benzoic acid], the “CT2, concentration doubling APTT” value in data set [1] is over 10000 µM. Besides, the midpoint of inhibition in data set [2], the IC50, lay at 2680 nM.
On to `CCC(=O)c1ccc(Cl)cc1-c1cc(=O)n(C(CC2CCCCO2)C(=O)Nc2ccc(C(=O)O)cc2)cc1OC` (centres unmarked) [Example 166], for which the “CT2, concentration doubling APTT” value in data set [1] came to 7.2 µM. The molecule also displayed an IC50 in data set [2] of 42 nM.
As for `CCC(=O)c1ccc(Cl)cc1-c1cc(=O)n(C(Cc2ccn(C)n2)C(=O)Nc2ccc(C(=O)O)cc2)cc1OC` (centres unmarked) [Example 99, 4-(2-(4-(5-chloro-2-propionylphenyl)-5-methoxy-2-oxopyridin-1(2H)-yl)-3-(1-methyl-1H-pyrazol-3-yl)propanamido)benzoic acid], in data set [1], the “CT2, concentration doubling APTT” value was found to be 3.5 µM. In data set [2], this molecule gave an IC50 of 29 nM.
The matching figures for `COc1cn([C@@H](CCOC2CCC2)C(=O)Nc2ccc(C(=O)O)cc2)c(=O)cc1-c1cc(Cl)ccc1C(C)=O` [Example 164, (S)-4-(2-(4-(2-acetyl-5-chlorophenyl)-5-methoxy-2-oxopyridin-1(2H)-yl)-4-cyclobutoxybutanamido)benzoic acid]: 6.4 µM and 30 nM.
